Tests used:
Rac = Rac activation Elisa on spleen infiltrated by leukemic blasts; type: in vivo; conditions: mice, 250 mg/Kg twice a day for 21 days, compared to a vehicle
Procedure: Compound 1 was assayed for its pharmacokinetics and anti-leukemia activities in mice. Specifically, a SEM leukemic cell line was labeled with a vector encoding the mCherry tag and Luciferase. 500,000 labeled cells were injected into immunodeficient mice (NSG mice). After establishment of leukemia (as assessed by bioluminescent imaging), mice were treated with Compound 1 at a dose 250 mg/Kg or a vehicle for 21 days twice a day. During treatment, mice were imaged every other day and BLI recorded and analyzed. 2 hours after the last dose, animals were sacrificed and organs harvested for PK and PD analysis.

40 kinases = assay: Kinase screening, whole panel; type: biochemical; conditions: summary of Table 1
Procedure: (§1) Compound 1 was tested for its efficacy in inhibiting activities of 40 kinases and binding with 12 GPCRs both as an antagonist and an agonist.

MAPK9 (JNK2) = MAPK9 (JNK2) (Homo sapiens, UniProt P45984); assay: Kinase screening; type: biochemical
Procedure: as §1

MAP2K2 (MEK2) = MAP2K2 (MEK2) (Homo sapiens, UniProt P36507); assay: Kinase screening; type: biochemical
Procedure: as §1

SYK = SYK (Homo sapiens, UniProt P43405); assay: Kinase screening; type: biochemical
Procedure: as §1

ABL1 = ABL1 (Homo sapiens, UniProt P00519); assay: Kinase screening; type: biochemical
Procedure: as §1

MYLK (MLCK) = MYLK (MLCK) (Homo sapiens, UniProt Q15746); assay: Kinase screening; type: biochemical
Procedure: as §1

PAK4 = PAK4 (Homo sapiens, UniProt O96013); assay: Kinase screening; type: biochemical
Procedure: as §1

CDK5/p25 = CDK5/p25 (Homo sapiens, UniProt Q00535); assay: Kinase screening; type: biochemical
Procedure: as §1

PAK3 = PAK3 (Homo sapiens, UniProt O75914); assay: Kinase screening; type: biochemical
Procedure: as §1

PIK3C3 (hVPS34) = PIK3C3 (hVPS34) (Homo sapiens, UniProt Q8NEB9); assay: Kinase screening; type: biochemical
Procedure: as §1

PIK3C2A (PI3K-C2 alpha) = PIK3C2A (PI3K-C2 alpha) (Homo sapiens, UniProt O00443); assay: Kinase screening; type: biochemical
Procedure: as §1

[1] = target: PIK3CD/PIK3R1 (p110 delta/p85 alpha) (Homo sapiens, UniProt O00329); assay: Kinase screening; type: biochemical
Procedure: as §1

ROCK2 = ROCK2 (Homo sapiens, UniProt O75116); assay: Kinase screening; type: biochemical
Procedure: as §1

FRAP1 (mTOR) = FRAP1 (mTOR) (Homo sapiens, UniProt P42345); assay: Kinase screening; type: biochemical
Procedure: as §1

EPHB1 = EPHB1 (Homo sapiens, UniProt P54762); assay: Kinase screening; type: biochemical
Procedure: as §1

CDK1/cyclin B = CDK1/cyclin B (Homo sapiens, UniProt P06493); assay: Kinase screening; type: biochemical
Procedure: as §1

PAK6 = PAK6 (Homo sapiens, UniProt Q9NQU5); assay: Kinase screening; type: biochemical
Procedure: as §1

AKT1 (PKB alpha) = AKT1 (PKB alpha) (Homo sapiens, UniProt P31749); assay: Kinase screening; type: biochemical
Procedure: as §1

SRC = SRC (Homo sapiens, UniProt P12931); assay: Kinase screening; type: biochemical
Sequence of SRC (P12931 whole entry, species assumed): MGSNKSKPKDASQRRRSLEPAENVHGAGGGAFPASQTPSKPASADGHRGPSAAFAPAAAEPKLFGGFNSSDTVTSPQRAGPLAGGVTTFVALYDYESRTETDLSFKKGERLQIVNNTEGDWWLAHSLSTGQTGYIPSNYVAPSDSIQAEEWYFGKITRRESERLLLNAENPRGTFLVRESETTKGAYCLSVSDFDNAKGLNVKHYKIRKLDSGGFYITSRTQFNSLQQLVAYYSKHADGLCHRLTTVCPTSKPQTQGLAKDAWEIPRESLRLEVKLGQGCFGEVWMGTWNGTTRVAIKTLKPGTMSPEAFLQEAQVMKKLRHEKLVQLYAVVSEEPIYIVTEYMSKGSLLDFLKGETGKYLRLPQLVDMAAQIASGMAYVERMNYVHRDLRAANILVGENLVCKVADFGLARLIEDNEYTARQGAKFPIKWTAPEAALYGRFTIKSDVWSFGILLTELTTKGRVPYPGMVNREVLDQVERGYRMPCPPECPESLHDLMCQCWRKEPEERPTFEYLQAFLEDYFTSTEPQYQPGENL
Procedure: as §1

[2] = target: PIK3CA/PIK3R1 (p110 alpha/p85 alpha) (Homo sapiens, UniProt P42336); assay: Kinase screening; type: biochemical
Procedure: as §1

ROCK1 = ROCK1 (Homo sapiens, UniProt Q13464); assay: Kinase screening; type: biochemical
Procedure: as §1

MAPK8 (JNK1) = MAPK8 (JNK1) (Homo sapiens, UniProt P45983); assay: Kinase screening; type: biochemical
Procedure: as §1

PAK7 (KIAA1264) = PAK7 (KIAA1264) (Homo sapiens, UniProt Q9P286); assay: Kinase screening; type: biochemical
Procedure: as §1

IGF1R = IGF1R (Homo sapiens, UniProt P08069); assay: Kinase screening; type: biochemical
Procedure: as §1

MAPK3 (ERK1) = MAPK3 (ERK1) (Homo sapiens, UniProt P27361); assay: Kinase screening; type: biochemical
Procedure: as §1

PAK2 (PAK65) = PAK2 (PAK65) (Homo sapiens, UniProt Q13177); assay: Kinase screening; type: biochemical
Procedure: as §1

CDC42 BPB (MRCKB) = CDC42 BPB (MRCKB) (Homo sapiens, UniProt Q9Y5S2); assay: Kinase screening; type: biochemical
Sequence of CDC42 BPB (MRCKB) (Q9Y5S2 whole entry, species assumed): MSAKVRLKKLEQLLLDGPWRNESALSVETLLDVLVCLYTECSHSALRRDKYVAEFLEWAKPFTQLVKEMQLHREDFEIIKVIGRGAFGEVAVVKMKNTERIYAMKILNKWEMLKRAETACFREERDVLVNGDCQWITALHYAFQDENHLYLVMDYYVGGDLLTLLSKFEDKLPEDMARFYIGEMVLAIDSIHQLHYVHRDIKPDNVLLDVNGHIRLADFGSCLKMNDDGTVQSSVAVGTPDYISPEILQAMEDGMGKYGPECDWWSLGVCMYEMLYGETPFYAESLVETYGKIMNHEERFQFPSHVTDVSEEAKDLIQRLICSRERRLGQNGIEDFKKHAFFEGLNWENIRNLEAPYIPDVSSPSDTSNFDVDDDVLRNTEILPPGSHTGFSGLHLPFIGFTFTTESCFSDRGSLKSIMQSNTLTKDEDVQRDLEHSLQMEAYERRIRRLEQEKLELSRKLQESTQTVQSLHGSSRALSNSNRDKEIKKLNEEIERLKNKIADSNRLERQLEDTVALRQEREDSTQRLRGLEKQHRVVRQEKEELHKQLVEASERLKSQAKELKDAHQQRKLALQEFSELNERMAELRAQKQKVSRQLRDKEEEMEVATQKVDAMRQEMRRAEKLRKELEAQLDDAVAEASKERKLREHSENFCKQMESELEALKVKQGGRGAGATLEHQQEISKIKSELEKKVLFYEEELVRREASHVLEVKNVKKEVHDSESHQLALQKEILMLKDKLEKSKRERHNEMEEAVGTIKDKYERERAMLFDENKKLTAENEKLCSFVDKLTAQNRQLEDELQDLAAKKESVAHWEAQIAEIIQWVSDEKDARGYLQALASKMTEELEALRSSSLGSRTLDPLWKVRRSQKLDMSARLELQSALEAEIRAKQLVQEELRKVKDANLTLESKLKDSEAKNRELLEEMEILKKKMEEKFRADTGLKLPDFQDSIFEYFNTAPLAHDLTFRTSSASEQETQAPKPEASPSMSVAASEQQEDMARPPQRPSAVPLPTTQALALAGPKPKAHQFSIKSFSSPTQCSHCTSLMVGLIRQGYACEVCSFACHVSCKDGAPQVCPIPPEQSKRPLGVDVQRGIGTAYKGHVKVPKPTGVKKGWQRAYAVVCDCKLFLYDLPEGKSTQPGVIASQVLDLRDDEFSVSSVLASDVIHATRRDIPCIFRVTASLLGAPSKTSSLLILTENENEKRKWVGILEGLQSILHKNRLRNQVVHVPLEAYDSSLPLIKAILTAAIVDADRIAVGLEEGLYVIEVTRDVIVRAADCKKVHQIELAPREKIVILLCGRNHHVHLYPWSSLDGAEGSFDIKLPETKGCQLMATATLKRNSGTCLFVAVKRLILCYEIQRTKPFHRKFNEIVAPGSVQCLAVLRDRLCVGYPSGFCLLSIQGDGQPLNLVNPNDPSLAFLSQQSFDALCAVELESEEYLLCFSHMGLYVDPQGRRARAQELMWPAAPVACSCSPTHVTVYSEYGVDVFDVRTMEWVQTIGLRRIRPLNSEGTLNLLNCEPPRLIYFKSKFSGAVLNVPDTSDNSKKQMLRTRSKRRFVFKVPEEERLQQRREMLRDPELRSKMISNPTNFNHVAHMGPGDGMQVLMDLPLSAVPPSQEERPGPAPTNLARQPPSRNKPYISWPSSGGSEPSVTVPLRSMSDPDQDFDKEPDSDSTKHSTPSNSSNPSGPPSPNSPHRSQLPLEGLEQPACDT
Procedure: as §1

FLT3 = FLT3 (Homo sapiens, UniProt P36888); assay: Kinase screening; type: biochemical
Sequence of FLT3 (P36888 27-993, species assumed): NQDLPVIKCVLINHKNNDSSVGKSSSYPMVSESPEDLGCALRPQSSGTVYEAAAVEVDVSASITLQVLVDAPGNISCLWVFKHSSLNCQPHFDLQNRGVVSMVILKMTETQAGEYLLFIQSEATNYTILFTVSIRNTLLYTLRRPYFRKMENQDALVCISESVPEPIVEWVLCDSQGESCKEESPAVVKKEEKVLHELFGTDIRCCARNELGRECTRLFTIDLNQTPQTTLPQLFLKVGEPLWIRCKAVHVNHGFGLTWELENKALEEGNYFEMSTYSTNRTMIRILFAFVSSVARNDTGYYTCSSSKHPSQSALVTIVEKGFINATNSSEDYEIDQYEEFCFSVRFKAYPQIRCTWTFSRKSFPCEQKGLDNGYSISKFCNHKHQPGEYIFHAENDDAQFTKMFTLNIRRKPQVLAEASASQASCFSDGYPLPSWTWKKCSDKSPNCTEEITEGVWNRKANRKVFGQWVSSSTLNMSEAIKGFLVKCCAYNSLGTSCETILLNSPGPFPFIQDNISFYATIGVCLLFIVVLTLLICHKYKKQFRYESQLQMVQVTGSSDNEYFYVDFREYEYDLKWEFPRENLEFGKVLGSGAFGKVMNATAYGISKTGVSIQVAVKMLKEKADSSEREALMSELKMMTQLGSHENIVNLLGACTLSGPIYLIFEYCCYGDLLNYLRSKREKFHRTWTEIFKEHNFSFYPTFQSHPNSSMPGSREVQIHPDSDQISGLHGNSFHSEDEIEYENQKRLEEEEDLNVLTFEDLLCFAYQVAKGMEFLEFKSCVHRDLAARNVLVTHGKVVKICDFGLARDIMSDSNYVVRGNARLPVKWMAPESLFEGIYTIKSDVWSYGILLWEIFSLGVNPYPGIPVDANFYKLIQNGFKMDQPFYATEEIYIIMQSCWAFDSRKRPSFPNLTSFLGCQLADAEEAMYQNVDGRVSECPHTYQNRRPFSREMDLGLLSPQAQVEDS
Procedure: as §1

KIT = KIT (Homo sapiens, UniProt P10721); assay: Kinase screening; type: biochemical
Procedure: as §1

EGFR (ErbB1) = EGFR (ErbB1) (Homo sapiens, UniProt P00533); assay: Kinase screening; type: biochemical
Procedure: as §1

PAK1 = PAK1 (Homo sapiens, UniProt Q13153); assay: Kinase screening; type: biochemical
Procedure: as §1

CDC42 BPA (MRCKA) = CDC42 BPA (MRCKA) (Homo sapiens, UniProt Q5VT25); assay: Kinase screening; type: biochemical
Procedure: as §1

LIMK2 = LIMK2 (Homo sapiens, UniProt P53671); assay: Kinase screening; type: biochemical
Procedure: as §1

PIK3C2B (PI3K-C2 beta) = PIK3C2B (PI3K-C2 beta) (Homo sapiens, UniProt O00750); assay: Kinase screening; type: biochemical
Sequence of PIK3C2B (PI3K-C2 beta) (O00750 whole entry, species assumed): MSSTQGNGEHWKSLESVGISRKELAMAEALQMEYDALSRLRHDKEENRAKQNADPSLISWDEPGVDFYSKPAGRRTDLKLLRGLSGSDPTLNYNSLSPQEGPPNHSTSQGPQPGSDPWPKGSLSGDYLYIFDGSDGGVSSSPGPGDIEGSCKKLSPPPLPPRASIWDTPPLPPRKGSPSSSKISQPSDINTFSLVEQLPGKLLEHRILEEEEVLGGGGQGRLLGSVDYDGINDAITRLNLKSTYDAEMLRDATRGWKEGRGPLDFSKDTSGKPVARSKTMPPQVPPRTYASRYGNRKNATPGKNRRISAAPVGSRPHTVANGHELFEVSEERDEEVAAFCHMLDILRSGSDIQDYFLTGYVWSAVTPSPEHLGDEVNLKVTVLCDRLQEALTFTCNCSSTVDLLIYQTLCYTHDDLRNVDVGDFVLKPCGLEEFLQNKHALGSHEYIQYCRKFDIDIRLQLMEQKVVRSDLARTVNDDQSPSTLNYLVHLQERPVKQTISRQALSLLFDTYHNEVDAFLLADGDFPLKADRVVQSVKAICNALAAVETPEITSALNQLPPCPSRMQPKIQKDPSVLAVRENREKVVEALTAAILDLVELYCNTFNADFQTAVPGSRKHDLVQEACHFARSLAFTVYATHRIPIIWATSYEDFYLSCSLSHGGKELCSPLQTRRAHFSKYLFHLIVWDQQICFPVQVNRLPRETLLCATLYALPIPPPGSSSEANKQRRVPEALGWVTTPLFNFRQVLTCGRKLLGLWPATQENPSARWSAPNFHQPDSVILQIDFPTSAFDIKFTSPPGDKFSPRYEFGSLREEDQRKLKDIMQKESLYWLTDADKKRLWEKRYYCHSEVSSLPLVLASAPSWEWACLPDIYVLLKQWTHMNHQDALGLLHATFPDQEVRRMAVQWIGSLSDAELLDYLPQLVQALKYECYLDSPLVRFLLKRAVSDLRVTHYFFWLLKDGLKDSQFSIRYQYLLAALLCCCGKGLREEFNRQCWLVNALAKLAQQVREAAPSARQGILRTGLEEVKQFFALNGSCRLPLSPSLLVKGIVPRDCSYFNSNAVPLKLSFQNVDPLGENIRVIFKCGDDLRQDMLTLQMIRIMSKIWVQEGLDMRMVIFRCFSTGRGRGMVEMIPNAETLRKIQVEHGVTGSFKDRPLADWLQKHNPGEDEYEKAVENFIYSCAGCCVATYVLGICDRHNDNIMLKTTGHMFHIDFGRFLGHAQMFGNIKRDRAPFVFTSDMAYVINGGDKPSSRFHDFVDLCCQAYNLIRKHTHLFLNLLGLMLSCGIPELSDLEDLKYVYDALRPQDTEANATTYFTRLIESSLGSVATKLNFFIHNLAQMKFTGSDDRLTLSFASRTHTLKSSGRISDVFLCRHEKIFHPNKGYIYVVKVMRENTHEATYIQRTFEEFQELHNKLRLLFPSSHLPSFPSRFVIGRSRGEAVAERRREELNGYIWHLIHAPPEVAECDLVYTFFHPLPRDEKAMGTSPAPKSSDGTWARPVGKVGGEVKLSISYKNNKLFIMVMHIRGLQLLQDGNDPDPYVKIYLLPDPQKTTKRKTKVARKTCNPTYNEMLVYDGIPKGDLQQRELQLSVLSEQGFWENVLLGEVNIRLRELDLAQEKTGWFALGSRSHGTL
Procedure: as §1

JAK2 = JAK2 (Homo sapiens, UniProt O60674); assay: Kinase screening; type: biochemical
Procedure: as §1

LIMK1 = LIMK1 (Homo sapiens, UniProt P53667); assay: Kinase screening; type: biochemical
Procedure: as §1

CCc1ccc(CN(C)C(=O)CCc2nnc(CCc3c[nH]c4ccccc34)o2)nc1 (racemic) [Compound 1]
Rac activation status in spleen (Rac): reduced Rac activation | inhibition of the 40 kinases tested (40 kinases): no significant inhibition | inhibition percentage (MAPK9 (JNK2)): 10.9 percentage | inhibition percentage (MAP2K2 (MEK2)): 13.3 percentage | inhibition percentage (SYK): 7.0 percentage | inhibition percentage (ABL1): 0.6 percentage | inhibition percentage (MYLK (MLCK)): 1.2 percentage | inhibition percentage (PAK4): 6.4 percentage | inhibition percentage (CDK5/p25): 1.0 percentage | inhibition percentage (PAK3): −10.2 percentage | inhibition percentage (PIK3C3 (hVPS34)): −12.5 percentage | inhibition percentage (PIK3C2A (PI3K-C2 alpha)): −1.3 percentage | inhibition percentage [1]: 9.0 percentage | inhibition percentage (ROCK2): −2.0 percentage | inhibition percentage (FRAP1 (mTOR)): 0.9 percentage | inhibition percentage (EPHB1): 7.1 percentage | inhibition percentage (CDK1/cyclin B): −2.3 percentage | inhibition percentage (PAK6): −0.6 percentage | inhibition percentage (AKT1 (PKB alpha)): −6.7 percentage | inhibition percentage (SRC): 8.7 percentage | inhibition percentage [2]: 11.0 percentage | inhibition percentage (ROCK1): −4.6 percentage | inhibition percentage (MAPK8 (JNK1)): 0.4 percentage | inhibition percentage (PAK7 (KIAA1264)): −11.5 percentage | inhibition percentage (IGF1R): −7.4 percentage | inhibition percentage (MAPK3 (ERK1)): 6.7 percentage | inhibition percentage (PAK2 (PAK65)): −8.5 percentage | inhibition percentage (CDC42 BPB (MRCKB)): 3.3 percentage | inhibition percentage (FLT3): −15.3 percentage | inhibition percentage (KIT): −4.2 percentage | inhibition percentage (EGFR (ErbB1)): −10.4 percentage | inhibition percentage (PAK1): 22.7 percentage | inhibition percentage (CDC42 BPA (MRCKA)): 2.8 percentage | inhibition percentage (LIMK2): 0.4 percentage | inhibition percentage (PIK3C2B (PI3K-C2 beta)): −10.9 percentage | inhibition percentage (JAK2): −11.6 percentage | inhibition percentage (LIMK1): −1.1 percentage

From patent US11427574B2, “Compounds for treating Rac-GTPase mediated disorder” (Children's Medical Center Corporation, priority 2015, dated 2022)
